# Reference: patent publication US10039282B2, “Six-membered C—N-bonded aryl sulphide and aryl sulphoxide derivatives as pesticides” (BAYER CROPSCIENCE AKTIENGESELLSCHAFT, priority 2013, dated 2018)
# Like-named read-outs stand apart in the source and are kept apart here.
# Assays:
# [1] = system: Tetranychus urticae; assay: Tetranychus urticae spray test, OP-resistant (bean leaf discs); format: in vivo; settings: 500 g/ha, after 6 days
# Description: 4. Tetranychus urticae—Spray Test, OP-Resistant
# Solvent: 78.0 parts by weight of acetone
# • 1.5 parts by weight of dimethylformamide Emulsifier: alkylaryl polyglycol ether
# To produce further test concentrations, the preparation is diluted with emulsifier-containing water.
# After 6 days, the efficacy in % is determined. 100% means that all the spider mites have been killed; 0% means that none of the spider mites have been killed.
# [2] = log P by reversed-phase HPLC analogously to OECD Guideline 117; format: physicochemical; settings: for logP (HCOOH): pH 2.7; for logP (neutral): pH 7.8
# Description: The log P values were determined analogously to OECD Guideline 117 (EC Directive 92/69/EEC) by HPLC (high-performance liquid chromatography) using reversed-phase columns (C 18), by the following methods:
# [a] The LC-MS determination in the acidic range is effected at pH 2.7 with 0.1% aqueous formic acid and acetonitrile (contains 0.1% formic acid) as eluents; linear gradient from 10% acetonitrile to 95% acetonitrile. log P^[…] is also referred to as log P(HCOOH). [b] LC-MS determination in the neutral range is effected at pH 7.8 with 0.001 molar aqueous ammonium hydrogencarbonate solution and acetonitrile as eluents; linear gradient from 10% acetonitrile to 95% acetonitrile. log P^[…] is also referred to as log P(neutral).
# Calibration is effected with solutions of a homologous series of unbranched alkan-2-ones (having 3 to 16 carbon atoms) with known log P values (log P values determined on the basis of the retention times by linear interpolation between two successive alkanones).
# [3] = system: Boophilus microplus; assay: Boophilus microplus injection test; format: in vivo; settings: 20 μg/animal, assessed after 7 days
# Description: 1. Boophilus microplus—Injection Test
# Solvent: dimethyl sulphoxide
# To produce an appropriate active compound formulation, 10 mg of active compound are mixed with 0.5 ml of solvent and the concentrate is diluted with solvent to the desired concentration.
# 1 μl of the active compound solution is injected into the abdomen of 5 engorged adult female cattle ticks (Boophilus microplus). The animals are transferred into dishes and kept in a climate-controlled room.
# The efficacy is assessed after 7 days by laying of fertile eggs. Eggs which are not visibly fertile are stored in a climate-controlled cabinet until the larvae hatch after about 42 days. An efficacy of 100% means that none of the ticks has laid any fertile eggs; 0% means that all the eggs are fertile.
# [4] = reversed-phase C18 HPLC column, acidic range, pH 2.7, 0.1% aqueous formic acid/acetonitrile, read-out: logP (HCOOH)
# [5] = reversed-phase C18 HPLC column, neutral range, pH 7.8, 0.001 molar aqueous ammonium hydrogencarbonate/acetonitrile, read-out: logP (neutral)
# [6] = acidic range, pH 2.7, 0.1% aqueous formic acid/acetonitrile, read-out: logP (HCOOH)
smiles,measurement,setting,value
Cc1cc(C)c([S+]([O-])CC(F)(F)F)cc1-n1cnc(C2CC2)cc1=O (racemic) [Example 35],efficacy (spider mites killed),[1],90%
Cc1ccc(NC(=O)C=C(N)C(F)(F)F)cc1SCC(F)(F)F [IIa-6],logP (HCOOH),[2],3.58
same,logP (neutral),[2],3.49
Cc1cc(F)c(-n2cnc(C3CC3)cc2=O)cc1[S+]([O-])CC(F)(F)F (racemic) [Example 7],efficacy (spider mites killed),[1],100%
Cc1cc(C)c([S+]([O-])CC(F)(F)F)cc1-n1c(C)nc(C(F)(F)F)cc1=O (racemic) [Example 14],efficacy (spider mites killed),[1],100%
Cc1cc(C)c([S+]([O-])CC(F)(F)F)cc1-n1cnc(C)c(C)c1=O (racemic) [Example 48],efficacy (spider mites killed),[1],90%
CCc1cc(=O)n(-c2cc(SCC(F)(F)F)c(C)cc2F)cn1 [Example 57],efficacy (spider mites killed),[1],100%
CCc1cc(=O)n(-c2ccc(C)c([S+]([O-])CC(F)(F)F)c2)cn1 (racemic) [Example 17],efficacy (spider mites killed),[1],100%
O=C(C=C(O)C(F)(F)F)Nc1cc(SCC(F)(F)F)c(Cl)cc1Cl [XXXI-3],logP (HCOOH),[2],3.13
O=C(C=C(O)C(F)(F)F)Nc1cc(SCC(F)(F)F)c(Br)cc1F [XXXI-5],logP (HCOOH),[2],2.93
CCc1cc(=O)n(-c2cc([S+]([O-])CC(F)(F)F)c(C)cc2C)cn1 (racemic) [Example 24],efficacy (spider mites killed),[1],90%
Cc1cc(F)c(NC(=O)C=C(N)C(C)(F)F)cc1SCC(F)(F)F [IIa-11],logP (HCOOH),[2],3.55
same,logP (neutral),[2],3.49
Cc1cc(F)c(NC(=O)C=C(N)C(F)F)cc1SCC(F)(F)F [IIa-9],logP (HCOOH),[2],3.23
same,logP (neutral),[2],3.21
"Cc1cc(F)c(-n2cnc(C(F)(F)F)cc2=O)cc1SCC(F)(F)F [Example 1, 3-{2-Fluoro-4-methyl-5-[(2,2,2-trifluoroethyl)sulphanyl]phenyl}-6-(trifluoromethyl)pyrimidin-4(3H)-one]",chromatographic logP,[2]; [4],3.42
same,chromatographic logP,[2]; [5],3.4
same,efficacy (spider mites killed),[1],100%
NC(=CC(=O)Nc1ccc(Cl)c(SCC(F)(F)F)c1)C(F)(F)F [IIa-7],logP (HCOOH),[2],3.66
same,logP (neutral),[2],3.65
Cc1ccc(NC(=O)C=C(O)C(F)(F)F)cc1SCC(F)(F)F [XXXI-6],logP (HCOOH),[2],2.80
Cc1cc(C)c(SCC(F)(F)F)cc1NC(=O)C=C(N)C(F)F [IIa-10],logP (HCOOH),[2],3.24
same,logP (neutral),[2],3.15
Cc1cc(C)c(SCC(F)(F)F)cc1NC(=O)C=C(O)C(F)(F)C(F)(F)F [XXXI-14],logP (neutral),[2],1.63
Cc1cc(C)c(SCC(F)(F)F)cc1NC(=O)C=C(N)C(C)(F)F [IIa-12],logP (HCOOH),[2],3.52
same,logP (neutral),[2],3.40
CCc1cc(=O)n(-c2cc(SCC(F)(F)F)c(C)cc2C)cn1 [Example 39],efficacy (spider mites killed),[1],100%
O=c1cc(C(F)(F)F)ncn1-c1cc([S+]([O-])CC(F)(F)F)c(Cl)cc1F (racemic) [Example 29],efficacy (spider mites killed),[1],100%
O=C(C=C(O)C(F)(F)F)Nc1ccc(Cl)c(SCC(F)(F)F)c1 [XXXI-7],logP (HCOOH),[2],2.84
Cc1cc(F)c(-n2cnc(C(C)C)cc2=O)cc1SCC(F)(F)F [Example 31],efficacy (spider mites killed),[1],100%
Cc1cc(Cl)c(NC(=O)C=C(N)C(F)(F)F)cc1SCC(F)(F)F [IIa-8],logP (HCOOH),[2],4.05
same,logP (neutral),[2],3.99
Cc1cc(C)c(-n2cnc(C3CC3)cc2=O)cc1SCC(F)(F)F [Example 23],efficacy (spider mites killed),[1],100%
NC(=CC(=O)Nc1cc(SCC(F)(F)F)c(Cl)cc1F)C(F)(F)F [IIa-4],logP (HCOOH),[2],3.83
same,logP (neutral),[2],3.73
Cc1cc(Cl)c(NC(=O)C=C(O)C(F)(F)F)cc1SCC(F)(F)F [XXXI-8],logP (HCOOH),[2],3.01
same,logP (neutral),[2],1.44
Cc1cc(C)c(-n2cnc(C(F)(F)C(F)(F)F)cc2=O)cc1SCC(F)(F)F [Example 36],efficacy (spider mites killed),[1],100%
Cc1cc(Cl)c(-n2cnc(C(F)(F)F)cc2=O)cc1SCC(F)(F)F [Example 59],efficacy (spider mites killed),[1],100%
same,efficacy (no fertile eggs laid),[3],100%
CCc1cc(=O)n(-c2cc([S+]([O-])CC(F)(F)F)c(C)cc2F)cn1 (racemic) [Example 10],efficacy (spider mites killed),[1],100%
O=c1cc(C(F)(F)F)ncn1-c1ccc(Cl)c(SCC(F)(F)F)c1 [Example 54],efficacy (spider mites killed),[1],100%
O=c1cc(C(F)(F)F)ncn1-c1cc(SCC(F)(F)F)c(Br)cc1F [Example 15],efficacy (spider mites killed),[1],100%
Cc1ccc(-n2cnc(C(F)(F)F)cc2=O)cc1[S+]([O-])CC(F)(F)F (racemic) [Example 50],efficacy (spider mites killed),[1],100%
same,efficacy (no fertile eggs laid),[3],100%
"Cc1cc(C)c(SCC(F)(F)F)cc1NC(=O)/C=C(\O)C(F)(F)F [XXXI-2, N-[2,4-Dimethyl-5-(2,2,2-trifluoroethylsulphanyl)phenyl]-4,4,4-trifluoro-3-hydroxybut-2-enamide]",chromatographic logP,[2]; [6],2.87
Cc1cc(F)c(-n2cnc(C(C)(F)F)cc2=O)cc1SCC(F)(F)F [Example 22],efficacy (spider mites killed),[1],100%
same,efficacy (no fertile eggs laid),[3],100%
"Cc1cc(F)c(NC(=O)/C=C(\O)C(F)(F)F)cc1SCC(F)(F)F [XXXI-1, 4,4,4-Trifluoro-N-{2-fluoro-4-methyl-5-[(2,2,2-trifluoroethyl)sulphanyl]phenyl}-3-hydroxybut-2-enamide]",chromatographic logP,[2]; [6],2.77
same,chromatographic logP,[2]; [5],1.43
Cc1cc(F)c(-n2cnc(C(F)F)cc2=O)cc1SCC(F)(F)F [Example 32],efficacy (spider mites killed),[1],100%
CCc1cc(=O)n(-c2ccc(C)c(SCC(F)(F)F)c2)cn1 [Example 43],efficacy (spider mites killed),[1],90%
Cc1cc(F)c(-n2c(C)nc(C(F)(F)F)cc2=O)cc1[S+]([O-])CC(F)(F)F (racemic) [Example 19],efficacy (spider mites killed),[1],100%
"Cc1cc(C)c(SCC(F)(F)F)cc1NC(=O)/C=C(\N)C(F)(F)F [IIa-2, 3-Amino-N-[2,4-dimethyl-5-(2,2,2-trifluoroethylsulphanyl)phenyl]-4,4,4-trilluorobut-2-enamide]",chromatographic logP,[2]; [4],3.63
same,chromatographic logP,[2]; [5],3.61
Cc1cc(F)c(NC(=O)C=C(O)C(F)F)cc1SCC(F)(F)F [XXXI-9],logP (HCOOH),[2],2.47
Cc1cc(C)c(-n2cnc(C(C)(F)F)cc2=O)cc1SCC(F)(F)F [Example 51],efficacy (spider mites killed),[1],100%
NC(=CC(=O)Nc1cc(SCC(F)(F)F)c(Br)cc1F)C(F)(F)F [IIa-5],logP (HCOOH),[2],3.88
same,logP (neutral),[2],3.78
O=C(C=C(O)C(F)(F)F)Nc1cc(SCC(F)(F)F)c(Cl)cc1F [XXXI-4],logP (HCOOH),[2],2.86
same,logP (neutral),[2],1.45
Cc1cc(F)c(NC(=O)C=C(O)C(C)(F)F)cc1SCC(F)(F)F [XXXI-11],logP (HCOOH),[2],2.72
Cc1cc(F)c(-n2cnc(C(C)C)cc2=O)cc1[S+]([O-])CC(F)(F)F (racemic) [Example 52],efficacy (spider mites killed),[1],100%
Cc1cc(F)c(-n2c(C)nc(C(F)(F)F)cc2=O)cc1SCC(F)(F)F [Example 8],efficacy (spider mites killed),[1],100%
Cc1cc(=O)n(-c2cc(SCC(F)(F)F)c(C)cc2C)cn1 [Example 20],efficacy (spider mites killed),[1],100%
NC(=CC(=O)Nc1cc(SCC(F)(F)F)c(Cl)cc1Cl)C(F)(F)F [IIa-3],logP (HCOOH),[2],4.24
same,logP (neutral),[2],4.13
"Cc1cc(F)c(NC(=O)/C=C(\N)C(F)(F)F)cc1SCC(F)(F)F [IIa-1, 3-Amino-4,4,4-trifluoro-N-{2-fluoro-4-methyl-5-[(2,2,2-trifluoroethyl)sulphanyl]phenyl}but-2-enamide]",chromatographic logP,[2]; [4],3.61
same,chromatographic logP,[2]; [5],3.6
Cc1cc(C)c(-n2cnc(C)c(C)c2=O)cc1SCC(F)(F)F [Example 13],efficacy (spider mites killed),[1],100%
Cc1ccc(-n2cnccc2=O)cc1[S+]([O-])CC(F)(F)F (racemic) [Example 28],efficacy (spider mites killed),[1],90%
O=c1cc(C(F)(F)F)ncn1-c1cc(SCC(F)(F)F)c(Cl)cc1F [Example 16],efficacy (spider mites killed),[1],100%
O=c1cc(C(F)(F)F)ncn1-c1cc([S+]([O-])CC(F)(F)F)c(Cl)cc1Cl (racemic) [Example 4],efficacy (spider mites killed),[1],100%
same,efficacy (no fertile eggs laid),[3],100%
Cc1cc(F)c(-n2cnc(C3CC3)cc2=O)cc1SCC(F)(F)F [Example 37],efficacy (spider mites killed),[1],100%
Cc1cc(C)c(SCC(F)(F)F)cc1NC(=O)C=C(O)C(F)F [XXXI-10],logP (HCOOH),[2],2.53
Cc1ccc(-n2cnc(C(F)(F)F)cc2=O)cc1SCC(F)(F)F [Example 47],efficacy (spider mites killed),[1],100%
same,efficacy (no fertile eggs laid),[3],100%
